The record followed here is PMC10805714, “Functionally-selective inhibition of threshold sodium currents and excitability in dorsal root ganglion neurons by cannabinol” (Communications Biology, 2024).

One test deals with T1, Nav1.7 (Homo sapiens, UniProt Q15858).
T1 construct: gene SCN9A; human Nav1.7 stably expressed in HEK293 cells; with SCN1B (human, co-transfected)
Kind of test: automated whole-cell patch-clamp (Qube-384), IC50 at -90 mV holding-potential. The class given is cell-based. Background: The patch-clamp technique gives a direct electrical read-out from membranes.

The target in the next test is T2, Nav1.7-P610T (Homo sapiens, UniProt Q15858, P610T).
T2 construct: gene SCN9A; P610T plasmid transfected in HEK293 cells
T2 sequence (Q15858 whole entry P610T): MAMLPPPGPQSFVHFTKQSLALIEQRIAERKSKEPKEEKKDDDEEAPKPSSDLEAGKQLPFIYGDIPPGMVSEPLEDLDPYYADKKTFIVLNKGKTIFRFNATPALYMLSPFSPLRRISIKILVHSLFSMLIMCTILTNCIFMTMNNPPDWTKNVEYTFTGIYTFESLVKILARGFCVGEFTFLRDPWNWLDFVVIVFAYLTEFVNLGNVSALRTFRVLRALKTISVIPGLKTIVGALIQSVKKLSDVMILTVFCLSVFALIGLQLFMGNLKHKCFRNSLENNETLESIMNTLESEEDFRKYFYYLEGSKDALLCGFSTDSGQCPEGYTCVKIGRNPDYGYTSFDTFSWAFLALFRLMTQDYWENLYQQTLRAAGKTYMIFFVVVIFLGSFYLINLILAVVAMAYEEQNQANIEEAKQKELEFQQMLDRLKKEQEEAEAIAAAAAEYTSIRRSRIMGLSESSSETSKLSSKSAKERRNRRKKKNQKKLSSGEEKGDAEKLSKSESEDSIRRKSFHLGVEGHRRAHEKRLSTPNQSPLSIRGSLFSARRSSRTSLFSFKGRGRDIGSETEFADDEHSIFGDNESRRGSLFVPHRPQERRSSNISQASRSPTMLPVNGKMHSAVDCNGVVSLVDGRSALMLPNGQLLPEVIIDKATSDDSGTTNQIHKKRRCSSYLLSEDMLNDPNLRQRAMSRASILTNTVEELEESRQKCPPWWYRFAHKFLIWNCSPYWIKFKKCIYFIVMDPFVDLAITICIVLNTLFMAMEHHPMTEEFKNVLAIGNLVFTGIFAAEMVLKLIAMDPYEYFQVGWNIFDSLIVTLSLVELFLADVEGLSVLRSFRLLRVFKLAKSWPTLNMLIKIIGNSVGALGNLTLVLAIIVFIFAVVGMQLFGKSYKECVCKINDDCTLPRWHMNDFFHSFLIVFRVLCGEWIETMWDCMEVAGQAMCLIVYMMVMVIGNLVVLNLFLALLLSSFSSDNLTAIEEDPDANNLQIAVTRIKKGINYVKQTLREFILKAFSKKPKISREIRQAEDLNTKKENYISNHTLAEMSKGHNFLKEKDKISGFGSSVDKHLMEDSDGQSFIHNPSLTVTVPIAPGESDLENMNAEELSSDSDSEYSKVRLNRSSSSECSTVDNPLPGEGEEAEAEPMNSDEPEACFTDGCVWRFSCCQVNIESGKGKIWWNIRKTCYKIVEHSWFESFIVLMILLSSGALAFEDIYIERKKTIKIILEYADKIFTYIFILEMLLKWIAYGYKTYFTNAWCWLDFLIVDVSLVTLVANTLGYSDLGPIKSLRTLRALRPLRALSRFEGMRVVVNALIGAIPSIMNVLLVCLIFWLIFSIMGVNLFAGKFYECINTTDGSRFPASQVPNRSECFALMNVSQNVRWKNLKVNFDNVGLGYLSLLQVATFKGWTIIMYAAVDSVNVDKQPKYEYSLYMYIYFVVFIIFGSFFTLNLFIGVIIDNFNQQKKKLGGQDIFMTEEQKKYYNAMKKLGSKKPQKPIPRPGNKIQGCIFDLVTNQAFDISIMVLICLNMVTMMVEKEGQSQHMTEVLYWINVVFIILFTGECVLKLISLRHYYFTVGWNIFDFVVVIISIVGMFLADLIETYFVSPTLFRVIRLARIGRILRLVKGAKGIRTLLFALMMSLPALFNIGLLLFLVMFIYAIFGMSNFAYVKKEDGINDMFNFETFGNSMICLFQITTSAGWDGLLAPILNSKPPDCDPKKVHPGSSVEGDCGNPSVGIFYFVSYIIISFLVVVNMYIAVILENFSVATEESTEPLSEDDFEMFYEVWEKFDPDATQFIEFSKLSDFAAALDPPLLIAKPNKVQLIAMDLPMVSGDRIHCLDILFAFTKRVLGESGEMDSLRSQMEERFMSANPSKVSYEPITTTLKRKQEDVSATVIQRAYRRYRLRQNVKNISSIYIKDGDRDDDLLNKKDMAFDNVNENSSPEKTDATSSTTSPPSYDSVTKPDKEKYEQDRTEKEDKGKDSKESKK
In words: automated patch-clamp, steady-state inactivation shift with […] s pre-pulse. It counts as cell-based.

T1 sequence (Q15858 whole entry): as the sequence (Q15858 whole entry P610T) above, with T610P counted along it
T1 sequence (Q07699 19-218 partner): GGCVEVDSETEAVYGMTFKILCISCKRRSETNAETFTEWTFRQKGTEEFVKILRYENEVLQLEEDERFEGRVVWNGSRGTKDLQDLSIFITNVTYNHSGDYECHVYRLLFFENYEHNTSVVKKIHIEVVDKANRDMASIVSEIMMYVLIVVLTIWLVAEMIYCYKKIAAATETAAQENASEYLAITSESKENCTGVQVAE

One may read the IC50 as the concentration needed to halve the response being measured. The low end stands for inhibition by little substance, the high end for a need for much substance. Consider `CCCCCc1cc(O)c2c(c1)OC(C)(C)c1ccc(C)cc1-2` [CBN, Cannabinol], for which the IC50 on Nav1.7 turned out to be 10.7 µM. Besides, the “automated patch-clamp, steady-state inactivation shift with 5 s pre-pulse” value on Nav1.7-P610T was “CBN hyperpolarized the SSI curves in both WT and P610T (Fig. S1)”.
